Results taken from ChEMBL document CHEMBL4715697, “Synthesis and biological activity of benzamide DNA minor groove binders” (2016).

Key:
Assay type in all cases: functional
Details in all cases: read-out: Activity
HL-60(TB) = assay: Growth inhibition of human HL-60(TB) cells assessed as cell growth at 10 uM incubated for 48 hrs by sulforhodamine B assay relative to control
K562 = assay: Growth inhibition of human K562 cells assessed as cell growth at 10 uM incubated for 48 hrs by sulforhodamine B assay relative to control
MOLT-4 = assay: Growth inhibition of human MOLT-4 cells assessed as cell growth at 10 uM incubated for 48 hrs by sulforhodamine B assay relative to control
A549 = assay: Growth inhibition of human A549/ATCC cells assessed as cell growth at 10 uM incubated for 48 hrs by sulforhodamine B assay relative to control
EKVX = assay: Growth inhibition of human EKVX cells assessed as cell growth at 10 uM incubated for 48 hrs by sulforhodamine B assay relative to control
HOP-62 = assay: Growth inhibition of human HOP-62 cells assessed as cell growth at 10 uM incubated for 48 hrs by sulforhodamine B assay relative to control
NCI-H226 = assay: Growth inhibition of human NCI-H226 cells assessed as cell growth at 10 uM incubated for 48 hrs by sulforhodamine B assay relative to control
NCI-H23 = assay: Growth inhibition of human NCI-H23 cells assessed as cell growth at 10 uM incubated for 48 hrs by sulforhodamine B assay relative to control
NCI-H322M = assay: Growth inhibition of human NCI-H322M cells assessed as cell growth at 10 uM incubated for 48 hrs by sulforhodamine B assay relative to control
NCI-H522 = assay: Growth inhibition of human NCI-H522 cells assessed as cell growth at 10 uM incubated for 48 hrs by sulforhodamine B assay relative to control
HCC 2998 = assay: Growth inhibition of human HCC 2998 cells assessed as cell growth at 10 uM incubated for 48 hrs by sulforhodamine B assay relative to control
HCT-116 = assay: Growth inhibition of human HCT-116 cells assessed as cell growth at 10 uM incubated for 48 hrs by sulforhodamine B assay relative to control
HCT-15 = assay: Growth inhibition of human HCT-15 cells assessed as cell growth at 10 uM incubated for 48 hrs by sulforhodamine B assay relative to control
HT-29 = assay: Growth inhibition of human HT-29 cells assessed as cell growth at 10 uM incubated for 48 hrs by sulforhodamine B assay relative to control
KM12 = assay: Growth inhibition of human KM12 cells assessed as cell growth at 10 uM incubated for 48 hrs by sulforhodamine B assay relative to control
SW-620 = assay: Growth inhibition of human SW-620 cells assessed as cell growth at 10 uM incubated for 48 hrs by sulforhodamine B assay relative to control
SF-268 = assay: Growth inhibition of human SF-268 cells assessed as cell growth at 10 uM incubated for 48 hrs by sulforhodamine B assay relative to control
SF-539 = assay: Growth inhibition of human SF-539 cells assessed as cell growth at 10 uM incubated for 48 hrs by sulforhodamine B assay relative to control
SNB-75 = assay: Growth inhibition of human SNB-75 cells assessed as cell growth at 10 uM incubated for 48 hrs by sulforhodamine B assay relative to control
LOX IMVI = assay: Growth inhibition of human LOX IMVI cells assessed as cell growth at 10 uM incubated for 48 hrs by sulforhodamine B assay relative to control
M14 = assay: Growth inhibition of human M14 cells assessed as cell growth at 10 uM incubated for 48 hrs by sulforhodamine B assay relative to control
SK-MEL-5 = assay: Growth inhibition of human SK-MEL-5 cells assessed as cell growth at 10 uM incubated for 48 hrs by sulforhodamine B assay relative to control
UACC-257 = assay: Growth inhibition of human UACC-257 cells assessed as cell growth at 10 uM incubated for 48 hrs by sulforhodamine B assay relative to control
IGROV-1 = assay: Growth inhibition of human IGROV-1 cells assessed as cell growth at 10 uM incubated for 48 hrs by sulforhodamine B assay relative to control
OVCAR-3 = assay: Growth inhibition of human OVCAR-3 cells assessed as cell growth at 10 uM incubated for 48 hrs by sulforhodamine B assay relative to control
OVCAR-5 = assay: Growth inhibition of human OVCAR-5 cells assessed as cell growth at 10 uM incubated for 48 hrs by sulforhodamine B assay relative to control
OVCAR-8 = assay: Growth inhibition of human OVCAR-8 cells assessed as cell growth at 10 uM incubated for 48 hrs by sulforhodamine B assay relative to control
NCI/ADR-RES = assay: Growth inhibition of human NCI/ADR-RES cells assessed as cell growth at 10 uM incubated for 48 hrs by sulforhodamine B assay relative to control
SK-OV-3 = assay: Growth inhibition of human SK-OV-3 cells assessed as cell growth at 10 uM incubated for 48 hrs by sulforhodamine B assay relative to control
786-0 = assay: Growth inhibition of human 786-0 cells assessed as cell growth at 10 uM incubated for 48 hrs by sulforhodamine B assay relative to control
CAKI-1 = assay: Growth inhibition of human CAKI-1 cells assessed as cell growth at 10 uM incubated for 48 hrs by sulforhodamine B assay relative to control
TK-10 = assay: Growth inhibition of human TK-10 cells assessed as cell growth at 10 uM incubated for 48 hrs by sulforhodamine B assay relative to control
UO-31 = assay: Growth inhibition of human UO-31 cells assessed as cell growth at 10 uM incubated for 48 hrs by sulforhodamine B assay relative to control
PC-3 = assay: Growth inhibition of human PC-3 cells assessed as cell growth at 10 uM incubated for 48 hrs by sulforhodamine B assay relative to control
DU-145 = assay: Growth inhibition of human DU-145 cells assessed as cell growth at 10 uM incubated for 48 hrs by sulforhodamine B assay relative to control
MCF7 = assay: Growth inhibition of human MCF7 cells assessed as cell growth at 10 uM incubated for 48 hrs by sulforhodamine B assay relative to control
MDA-MB-231 = assay: Growth inhibition of human MDA-MB-231 cells assessed as cell growth at 10 uM incubated for 48 hrs by sulforhodamine B assay relative to control
BT-549 = assay: Growth inhibition of human BT-549 cells assessed as cell growth at 10 uM incubated for 48 hrs by sulforhodamine B assay relative to control
T47D = assay: Growth inhibition of human T47D cells assessed as cell growth at 10 uM incubated for 48 hrs by sulforhodamine B assay relative to control
MDA-MB-468 = assay: Growth inhibition of human MDA-MB-468 cells assessed as cell growth at 10 uM incubated for 48 hrs by sulforhodamine B assay relative to control

Compound: CC(=O)Nc1cc(CO)cc(NC(=O)c2cccc(NC(=O)CCCN3CCOCC3)c2)c1
- growth at 10 µM (HL-60(TB)): 110%
- growth at 10 µM (K562): 105%
- growth at 10 µM (MOLT-4): 102%
- growth at 10 µM (A549): 101%
- growth at 10 µM (EKVX): 113%
- growth at 10 µM (HOP-62): 103%
- growth at 10 µM (NCI-H226): 96.7%
- growth at 10 µM (NCI-H23): 105%
- growth at 10 µM (NCI-H322M): 105%
- growth at 10 µM (NCI-H522): 93.1%
- growth at 10 µM (HCC 2998): 101%
- growth at 10 µM (HCT-116): 98.9%
- growth at 10 µM (HCT-15): 103%
- growth at 10 µM (HT-29): 106%
- growth at 10 µM (KM12): 135%
- growth at 10 µM (SW-620): 108%
- growth at 10 µM (SF-268): 107%
- growth at 10 µM (SF-539): 98.9%
- growth at 10 µM (SNB-75): 102%
- growth at 10 µM (LOX IMVI): 99.8%
- growth at 10 µM (M14): 106%
- growth at 10 µM (SK-MEL-5): 104%
- growth at 10 µM (UACC-257): 107%
- growth at 10 µM (IGROV-1): 106%
- growth at 10 µM (OVCAR-3): 145%
- growth at 10 µM (OVCAR-5): 101%
- growth at 10 µM (OVCAR-8): 107%
- growth at 10 µM (NCI/ADR-RES): 107%
- growth at 10 µM (SK-OV-3): 104%
- growth at 10 µM (786-0): 99.4%
- growth at 10 µM (CAKI-1): 116%
- growth at 10 µM (TK-10): 94%
- growth at 10 µM (UO-31): 95.5%
- growth at 10 µM (PC-3): 102%
- growth at 10 µM (DU-145): 108%
- growth at 10 µM (MCF7): 105%
- growth at 10 µM (MDA-MB-231): 104%
- growth at 10 µM (BT-549): 91.7%
- growth at 10 µM (T47D): 96%
- growth at 10 µM (MDA-MB-468): 92.3%
